Laboratory results: patent publication US9708304B2, “Salt polymorph of thioxanthene-9-ylidene-1-methyl piperidine acid addition salts as antimigraine compounds” (BIOFRONTERA BIOSCIENCE GMBH, priority 2013, dated 2017)
Like-named read-outs stand apart in the source and are kept apart here.

Experiment: Comparison of solubilities of sample Id 1 and Id 2 in three different solvents
Type: physicochemical
Method: It has also been confirmed that sample 2 has a higher solubility than the starting material. The starting HCl salt (sample Id 1) and the salt received from the low temperature evaporation (sample Id 2) were dissolved in 3 solvents with different capacities in solubility, namely methanol, 2-propanol and 96% ethanol (see Table 3 below). The solubility of sample Id 1 and sample Id 2 is shown in the rightmost column of Table 3 in mg/ml.

[1] = solvent 2-Propanol, hydrochloride
[2] = solvent Ethanol 96%, hydrochloride
[3] = solvent Methanol, hydrochloride

Row | SMILES | Increase in solubility in comparison to the starting material (sample Id 1) (2-propanol) | solubility (2-propanol, organic solvent or mixture, thermodynamic from solid, solvent 2-Propanol, read-out: Solubility) [mg/mL] | Increase in solubility in comparison to the starting material (sample Id 1) (96% ethanol) | Solubility compared with starting material (methanol, 2-propanol and 96% ethanol) | Weight-% (dissolved salt in solution) [1] [%] | Weight-% (dissolved salt in solution) [2] [%] | solubility [2] [mg/mL] | Weight-% (dissolved salt in solution) [3] [%] | solubility [3] [mg/mL] | solubility (96% ethanol, organic solvent or mixture, thermodynamic from solid, solvent Ethanol 96%, read-out: Solubility) [mg/mL] | solubility (methanol, organic solvent or mixture, thermodynamic from solid, solvent Methanol, read-out: Solubility) [mg/mL] | solubility [1] [mg/mL]
1 | CCOc1ccc2c(c1)Sc1cccc(OC)c1C2=C1CCN(C)CC1.Cl [Low. temp. evap. MeOH, 4-(6-ethoxy-1-methoxy-thioxanthene-9-ylidene)-1-methyl piperidine hydrochloride] | about 25% | 5 | about 9% | enhanced solubility in all three solvents tested | 0.38 | 4.70 | 62 | 12.92 | 171 | – | – | –
2 | CCOc1ccc2c(c1)Sc1cccc(OC)c1C2=C1CCN(C)CC1.Cl [Starting Material, 4-(6-ethoxy-1-methoxy-thioxanthene-9-ylidene)-1-methyl piperidine hydrochloride] | – | – | – | – | 0.27 | 4.56 | – | 12.50 | – | 57 | 156 | 4
